The target in the assay is T1, Smc1/Smc3 heterodimer with Scc1-C (cohesin) (Saccharomyces cerevisiae, UniProt P32908+P47037, P32908:D1164E, form not given).
T1 construct: N-terminal tags; Sf9 insect cells; fluorescently labelled for MST; with Sister chromatid cohesion protein 1
T1 sequence (P32908 1-1225 D1164E): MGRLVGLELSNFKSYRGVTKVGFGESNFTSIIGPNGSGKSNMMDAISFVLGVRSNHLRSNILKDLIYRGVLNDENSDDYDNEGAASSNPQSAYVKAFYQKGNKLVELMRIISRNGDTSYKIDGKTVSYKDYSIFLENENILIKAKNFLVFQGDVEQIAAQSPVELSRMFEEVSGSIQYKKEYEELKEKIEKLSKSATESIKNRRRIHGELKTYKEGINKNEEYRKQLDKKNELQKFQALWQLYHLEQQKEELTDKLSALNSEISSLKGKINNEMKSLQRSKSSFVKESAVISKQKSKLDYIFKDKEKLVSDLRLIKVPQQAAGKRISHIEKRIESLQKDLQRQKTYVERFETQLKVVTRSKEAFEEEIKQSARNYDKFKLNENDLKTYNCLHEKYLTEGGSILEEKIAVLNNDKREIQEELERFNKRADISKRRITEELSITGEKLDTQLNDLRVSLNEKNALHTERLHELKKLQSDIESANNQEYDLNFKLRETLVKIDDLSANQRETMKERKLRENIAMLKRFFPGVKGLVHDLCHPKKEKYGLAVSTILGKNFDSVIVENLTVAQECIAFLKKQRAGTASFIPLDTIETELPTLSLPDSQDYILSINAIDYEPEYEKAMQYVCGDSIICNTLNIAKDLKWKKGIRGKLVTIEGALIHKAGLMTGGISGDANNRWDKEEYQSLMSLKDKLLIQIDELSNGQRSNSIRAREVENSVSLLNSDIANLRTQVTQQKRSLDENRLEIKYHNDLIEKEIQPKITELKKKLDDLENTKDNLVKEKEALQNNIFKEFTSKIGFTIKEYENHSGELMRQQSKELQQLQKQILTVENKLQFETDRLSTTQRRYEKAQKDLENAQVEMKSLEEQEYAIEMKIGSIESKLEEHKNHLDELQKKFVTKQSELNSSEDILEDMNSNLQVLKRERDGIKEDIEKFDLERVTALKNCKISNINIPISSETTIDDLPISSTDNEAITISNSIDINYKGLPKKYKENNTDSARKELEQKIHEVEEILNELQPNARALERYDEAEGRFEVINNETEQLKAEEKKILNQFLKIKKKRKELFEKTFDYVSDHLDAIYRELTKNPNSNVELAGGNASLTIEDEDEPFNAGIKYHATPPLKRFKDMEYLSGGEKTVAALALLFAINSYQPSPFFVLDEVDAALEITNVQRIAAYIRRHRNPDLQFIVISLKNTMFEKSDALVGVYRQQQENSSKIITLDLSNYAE
T1 sequence (P47037 1-1230): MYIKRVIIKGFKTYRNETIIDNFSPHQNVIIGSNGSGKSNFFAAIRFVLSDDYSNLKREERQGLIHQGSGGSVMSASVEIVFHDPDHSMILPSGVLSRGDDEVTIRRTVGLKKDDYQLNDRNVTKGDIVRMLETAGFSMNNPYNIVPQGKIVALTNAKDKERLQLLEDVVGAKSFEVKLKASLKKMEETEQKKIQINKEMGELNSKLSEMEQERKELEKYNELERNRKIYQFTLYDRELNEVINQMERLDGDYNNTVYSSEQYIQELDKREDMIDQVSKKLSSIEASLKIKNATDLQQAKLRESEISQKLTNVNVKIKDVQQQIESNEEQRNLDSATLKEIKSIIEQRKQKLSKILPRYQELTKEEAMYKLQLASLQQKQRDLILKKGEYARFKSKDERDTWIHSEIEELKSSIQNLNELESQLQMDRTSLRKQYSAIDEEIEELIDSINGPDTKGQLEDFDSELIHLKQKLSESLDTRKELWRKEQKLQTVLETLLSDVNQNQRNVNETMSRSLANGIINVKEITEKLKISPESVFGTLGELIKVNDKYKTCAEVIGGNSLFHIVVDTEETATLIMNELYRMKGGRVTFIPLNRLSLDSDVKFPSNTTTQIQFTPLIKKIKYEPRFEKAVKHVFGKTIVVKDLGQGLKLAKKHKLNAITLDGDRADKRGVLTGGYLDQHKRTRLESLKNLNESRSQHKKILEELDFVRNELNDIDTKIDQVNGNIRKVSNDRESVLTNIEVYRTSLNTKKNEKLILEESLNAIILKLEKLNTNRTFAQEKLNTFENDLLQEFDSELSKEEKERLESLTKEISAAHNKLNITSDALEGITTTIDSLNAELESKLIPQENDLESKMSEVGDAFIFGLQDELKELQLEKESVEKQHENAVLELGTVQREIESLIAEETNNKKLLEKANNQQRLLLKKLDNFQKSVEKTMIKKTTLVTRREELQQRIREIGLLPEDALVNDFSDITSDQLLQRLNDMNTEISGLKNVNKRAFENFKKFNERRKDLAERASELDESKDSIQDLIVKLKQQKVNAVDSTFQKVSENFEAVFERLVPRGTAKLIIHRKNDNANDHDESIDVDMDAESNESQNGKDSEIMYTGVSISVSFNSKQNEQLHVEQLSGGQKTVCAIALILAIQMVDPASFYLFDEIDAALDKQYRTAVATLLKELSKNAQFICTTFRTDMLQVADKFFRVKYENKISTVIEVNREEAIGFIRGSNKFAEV
T1 sequence (Q12158 1-566 partner): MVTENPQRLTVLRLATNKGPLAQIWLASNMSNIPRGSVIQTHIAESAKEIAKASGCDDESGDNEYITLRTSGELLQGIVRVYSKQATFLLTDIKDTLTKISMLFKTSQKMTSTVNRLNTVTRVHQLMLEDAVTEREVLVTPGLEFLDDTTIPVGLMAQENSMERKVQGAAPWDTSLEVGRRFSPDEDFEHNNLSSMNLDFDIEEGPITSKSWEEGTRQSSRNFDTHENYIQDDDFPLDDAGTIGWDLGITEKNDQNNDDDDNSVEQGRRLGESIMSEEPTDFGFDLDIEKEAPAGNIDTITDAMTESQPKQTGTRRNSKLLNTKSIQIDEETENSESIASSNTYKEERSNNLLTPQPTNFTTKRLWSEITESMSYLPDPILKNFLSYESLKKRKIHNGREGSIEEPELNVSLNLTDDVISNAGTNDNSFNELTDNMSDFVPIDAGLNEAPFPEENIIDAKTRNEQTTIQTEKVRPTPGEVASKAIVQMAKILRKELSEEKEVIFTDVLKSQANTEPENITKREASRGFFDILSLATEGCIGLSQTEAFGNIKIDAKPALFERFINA
Description: microscale thermophoresis. The class given is binding. The conditions noted are these: fluorescently labelled protein; Smc1 co-purified with Scc1-C, plus Smc3; read-out: affinity. The source says: microscale thermophoresis on Smc1/Smc3 heterodimer with Scc1-C (cohesin) | Smc1 L1129V, D1164E and E1158Q mutants all had wild-type-like affinity to both ATP and ADP | wild-type and mutant cohesin complexes appear to have similar affinities to ADP
In general terms: Microscale thermophoresis detects binding through changes in fluorescence in a small temperature gradient.

Each structure is given as a SMILES string. Bounds are passed on as bounds.

For `Nc1ncnc2c1ncn2[C@@H]1O[C@H](COP(=O)(O)OP(=O)(O)OP(=O)(O)O)[C@@H](O)[C@H]1O` [ATP], the Kd was 542 ± 188 µM.
Next, `Nc1ncnc2c1ncn2[C@@H]1O[C@H](COP(=O)(O)OP(=O)(O)O)[C@@H](O)[C@H]1O` [ADP]: more than 1000 µM.
